From patent US12552783B2, “Modulators of proteolysis and associated methods of use” (Arvinas Operations, Inc., priority 2018, dated 2026)

Molecular target: KRas (Homo sapiens, UniProt P01116, G12C)
Assay: KRas degradation in NCI-H2030 cells by Western blot, normalized to GAPDH (data of Table 14)
Type: cell-based
Parameters: host or cells: NCI-H2030
Conditions: for Dmax: NCI-H2030; for Percent Degradation at Indicated Concentration (μM): H2030
Method in brief: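 Cells serum-starved 24 h, then treated at 0.3, 1 and 3 μM in 0.1% DMSO, 24 h for VHL-based compounds and 72 h for others. Lysates (10 μg protein) immunoblotted; KRas normalized to GAPDH, degradation visually estimated below 25% or quantified versus DMSO lane, giving DC50 and DMax.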

Structure (SMILES) | Percent Degradation at Indicated Concentration (μM): 0.1 (H2030 cells, 0.1 μM) | Percent Degradation at Indicated Concentration (μM): 0.3 (H2030 cells, 0.3 μM) | Percent Degradation at Indicated Concentration (μM): 1 (H2030 cells, 1 μM) | Dmax (H2030 cells) [%] | Percent Degradation at Indicated Concentration (μM): 3 (H2030 cells, 3 μM) | Percent Degradation at Indicated Concentration (μM) (0.3 μM) | Percent Degradation at Indicated Concentration (μM) (1 μM) | Percent Degradation at Indicated Concentration (μM) (3 μM) | Dmax [%]
C=CC(=O)N1CCN(c2nc(NCCC(=O)N(C)CCOCCOCC(=O)N[C@H](C(=O)N3C[C@H](O)C[C@H]3C(=O)N[C@@H](C)c3ccc(-c4scnc4C)cc3)C(C)(C)C)nc3c(F)c(-c4cc(O)cc5ccccc45)c(Cl)cc23)CC1 [compound 192, (2S,4R)-1-((2S)-15-((4-(4-acryloylpiperazin-1-yl)-6-chloro-8-fluoro-7-(3-hydroxynaphthalen-1-yl)quinazolin-2-yl)amino)-2-(tert-butyl)-12-methyl-4,13-dioxo-6,9-dioxa-3,12-diazapentadecanoyl)-4-hydroxy-N-((S)-1-(4-(4-methylthiazol-5-yl)phenyl)ethyl)pyrrolidine-2-carboxamide] | C (C ≤ 35) | C (C ≤ 35) | C (C ≤ 35) | ≤ 35 | – | – | – | – | –
C=CC(=O)N1CCN(c2nc(NCCC(=O)N(C)CCOCCOCCOCC(=O)N[C@H](C(=O)N3C[C@H](O)C[C@H]3C(=O)N[C@@H](C)c3ccc(-c4scnc4C)cc3)C(C)(C)C)nc3c(F)c(-c4cc(O)cc5ccccc45)c(Cl)cc23)CC1 [compound 193, (2S,4R)-1-((2S)-18-((4-(4-acryloylpiperazin-1-yl)-6-chloro-8-fluoro-7-(3-hydroxynaphthalen-1-yl)quinazolin-2-yl)amino)-2-(tert-butyl)-15-methyl-4,16-dioxo-6,9,12-trioxa-3,15-diazaoctadecanoyl)-4-hydroxy-N-((S)-1-(4-(4-methylthiazol-5-yl)phenyl)ethyl)pyrrolidine-2-carboxamide] | – | C (C ≤ 35) | C (C ≤ 35) | ≤ 35 | C (C ≤ 35) | – | – | – | –
C=CC(=O)N1CCN(c2nc(NCCC(=O)N(C)CCOCCOCCOCCOCC(=O)N[C@H](C(=O)N3C[C@H](O)C[C@H]3C(=O)N[C@@H](C)c3ccc(-c4scnc4C)cc3)C(C)(C)C)nc3c(F)c(-c4cc(O)cc5ccccc45)c(Cl)cc23)CC1 [compound 194, (2S,4R)-1-((2S)-21-((4-(4-acryloylpiperazin-1-yl)-6-chloro-8-fluoro-7-(3-hydroxynaphthalen-1-yl)quinazolin-2-yl)amino)-2-(tert-butyl)-18-methyl-4,19-dioxo-6,9,12,15-tetraoxa-3,18-diazahenicosanoyl)-4-hydroxy-N-((S)-1-(4-(4-methylthiazol-5-yl)phenyl)ethyl)pyrrolidine-2-carboxamide] | – | C (C ≤ 35) | C (C ≤ 35) | ≤ 35 | C (C ≤ 35) | – | – | – | –
C=CC(=O)N1CCN(c2nc(NCCC(=O)N(C)CCOCCOCCOCCOCCOCC(=O)N[C@H](C(=O)N3C[C@H](O)C[C@H]3C(=O)N[C@@H](C)c3ccc(-c4scnc4C)cc3)C(C)(C)C)nc3c(F)c(-c4cc(O)cc5ccccc45)c(Cl)cc23)CC1 [compound 197, (2S,4R)-1-((2S)-24-((4-(4-acryloylpiperazin-1-yl)-6-chloro-8-fluoro-7-(3-hydroxynaphthalen-1-yl)quinazolin-2-yl)amino)-2-(tert-butyl)-21-methyl-4,22-dioxo-6,9,12,15,18-pentaoxa-3,21-diazatetracosanoyl)-4-hydroxy-N-((S)-1-(4-(4-methylthiazol-5-yl)phenyl)ethyl)pyrrolidine-2-carboxamide] | – | C (C ≤ 35) | C (C ≤ 35) | ≤ 35 | C (C ≤ 35) | – | – | – | –
C=CC(=O)N1CCN(c2nc(NCCC(=O)N(C)CCOCCOCCOCCOCCOCCOCCOCCOCCOCCOCC(=O)N[C@H](C(=O)N3C[C@H](O)C[C@H]3C(=O)N[C@@H](C)c3ccc(-c4scnc4C)cc3)C(C)(C)C)nc3c(F)c(-c4cc(O)cc5ccccc45)c(Cl)cc23)CC1 [compound 198, (2S,4R)-1-((2S)-39-((4-(4-acryloylpiperazin-1-yl)-6-chloro-8-fluoro-7-(3-hydroxynaphthalen-1-yl)quinazolin-2-yl)amino)-2-(tert-butyl)-36-methyl-4,37-dioxo-6,9,12,15,18,21,24,27,30,33-decaoxa-3,36-diazanonatriacontanoyl)-4-hydroxy-N-((S)-1-(4-(4-methylthiazol-5-yl)phenyl)ethyl)pyrrolidine-2-carboxamide] | – | – | – | – | – | C (Percent Degradation: C ≤ 35) | C (Percent Degradation: C ≤ 35) | C (Percent Degradation: C ≤ 35) | ≤ 35
C=CC(=O)N1CCN(c2nc(NCCC(=O)N(C)CCOCCOCCOCCOCC(=O)N[C@H](C(=O)N3C[C@@H](O)C[C@H]3C(=O)N[C@@H](C)c3ccc(-c4scnc4C)cc3)C(C)(C)C)nc3c(F)c(-c4cc(O)cc5ccccc45)c(Cl)cc23)CC1 [compound 199, (2S,4S)-1-((2S)-21-((4-(4-acryloylpiperazin-1-yl)-6-chloro-8-fluoro-7-(3-hydroxynaphthalen-1-yl)quinazolin-2-yl)amino)-2-(tert-butyl)-18-methyl-4,19-dioxo-6,9,12,15-tetraoxa-3,18-diazahenicosanoyl)-4-hydroxy-N-((S)-1-(4-(4-methylthiazol-5-yl)phenyl)ethyl)pyrrolidine-2-carboxamide] | – | – | – | – | – | C (Percent Degradation: C ≤ 35) | C (Percent Degradation: C ≤ 35) | C (Percent Degradation: C ≤ 35) | ≤ 35
CC(=O)N1CCN(c2nc(NCCC(=O)N(C)CCOCC(=O)N[C@H](C(=O)N3C[C@H](O)C[C@H]3C(=O)N[C@@H](C)c3ccc(-c4scnc4C)cc3)C(C)(C)C)nc3c(F)c(-c4cc(O)cc5ccccc45)c(Cl)cc23)CC1 [compound 200, (2S,4R)-1-((2S)-2-(2-(2-(3-((4-(4-acetylpiperazin-1-yl)-6-chloro-8-fluoro-7-(3-hydroxynaphthalen-1-yl)quinazolin-2-yl)amino)-N-methylpropanamido)ethoxy)acetamido)-3,3-dimethylbutanoyl)-4-hydroxy-N-((S)-1-(4-(4-methylthiazol-5-yl)phenyl)ethyl)pyrrolidine-2-carboxamide] | – | – | – | – | – | C (Percent Degradation: C ≤ 35) | C (Percent Degradation: C ≤ 35) | C (Percent Degradation: C ≤ 35) | ≤ 35
CC(=O)N1CCN(c2nc(NCCC(=O)N(C)CCOCCOCC(=O)N[C@H](C(=O)N3C[C@H](O)C[C@H]3C(=O)N[C@@H](C)c3ccc(-c4scnc4C)cc3)C(C)(C)C)nc3c(F)c(-c4cc(O)cc5ccccc45)c(Cl)cc23)CC1 [compound 201, (2S,4R)-1-((2S)-15-((4-(4-acetylpiperazin-1-yl)-6-chloro-8-fluoro-7-(3-hydroxynaphthalen-1-yl)quinazolin-2-yl)amino)-2-(tert-butyl)-12-methyl-4,13-dioxo-6,9-dioxa-3,12-diazapentadecanoyl)-4-hydroxy-N-((S)-1-(4-(4-methylthiazol-5-yl)phenyl)ethyl)pyrrolidine-2-carboxamide] | – | – | – | – | – | C (Percent Degradation: C ≤ 35) | C (Percent Degradation: C ≤ 35) | C (Percent Degradation: C ≤ 35) | ≤ 35
CC(=O)N1CCN(c2nc(NCCC(=O)N(C)CCOCCOCCOCC(=O)N[C@H](C(=O)N3C[C@H](O)C[C@H]3C(=O)N[C@@H](C)c3ccc(-c4scnc4C)cc3)C(C)(C)C)nc3c(F)c(-c4cc(O)cc5ccccc45)c(Cl)cc23)CC1 [compound 202, (2S,4R)-1-((2S)-18-((4-(4-acetylpiperazin-1-yl)-6-chloro-8-fluoro-7-(3-hydroxynaphthalen-1-yl)quinazolin-2-yl)amino)-2-(tert-butyl)-15-methyl-4,16-dioxo-6,9,12-trioxa-3,15-diazaoctadecanoyl)-4-hydroxy-N-((S)-1-(4-(4-methylthiazol-5-yl)phenyl)ethyl)pyrrolidine-2-carboxamide] | – | – | – | – | – | C (Percent Degradation: C ≤ 35) | C (Percent Degradation: C ≤ 35) | C (Percent Degradation: C ≤ 35) | ≤ 35
CC(=O)N1CCN(c2nc(NCCC(=O)N(C)CCOCCOCCOCCOCCOCC(=O)N[C@H](C(=O)N3C[C@H](O)C[C@H]3C(=O)N[C@@H](C)c3ccc(-c4scnc4C)cc3)C(C)(C)C)nc3c(F)c(-c4cc(O)cc5ccccc45)c(Cl)cc23)CC1 [compound 204, (2S,4R)-1-((2S)-24-((4-(4-acetylpiperazin-1-yl)-6-chloro-8-fluoro-7-(3-hydroxynaphthalen-1-yl)quinazolin-2-yl)amino)-2-(tert-butyl)-21-methyl-4,22-dioxo-6,9,12,15,18-pentaoxa-3,21-diazatetracosanoyl)-4-hydroxy-N-((S)-1-(4-(4-methylthiazol-5-yl)phenyl)ethyl)pyrrolidine-2-carboxamide] | – | – | – | – | – | C (Percent Degradation: C ≤ 35) | C (Percent Degradation: C ≤ 35) | C (Percent Degradation: C ≤ 35) | ≤ 35
